Source: US20220073942A1, “Cells with reduced inhibitor production and methods of use thereof” (PFIZER INC., priority 2018, published 2022)
Where two headings read alike, the source gives them in different places.

How the values were obtained:
CHO cells (cell line A) = details: fresh Medium A supplemented with formate at 0, 2, 4 and 6 mM, growth monitored for 5 or 6 days, FIG. 3B
Experimental: CHO cells (cell line A or cell line B) producing a recombinant antibody were inoculated at low cell densities (0.1 E6 cells/mL) in various conditions in triplicates in 6-well plate cultures. The working volume for each well on day 0 was 4 mL. Cell line A was inoculated either in fresh Medium A or fresh Medium A supplemented with formate at various concentrations. Cell line B was inoculated either in fresh Medium A or fresh Medium A supplemented with glycerol at various concentrations. The concentrations tested for formate were [0, 2, 4 and 6 mM] and for glycerol were [0, 2 and 4 mM]. The 6-well plates were incubated on a shaking platform in 36.5C and 5% carbon dioxide. Cell growth in all the conditions was monitored for 5 or 6 days.

CHO cells (cell line B) = experiment: Effect of glycerol on growth (viable cell density) of CHO cells in 6-well plate culture; format: cell-based, Chinese hamster; details: fresh Medium A supplemented with glycerol at 0, 2 and 4 mM, growth monitored for 5 or 6 days, FIG. 3A

| Structure (SMILES) | concentration at which cell growth was suppressed (CHO cells (cell line A)) | concentration at which cell growth was suppressed (CHO cells (cell line A); listed as Formate) [mM] | concentration at which cell growth was suppressed (CHO cells (cell line B)) | concentration at which cell growth was suppressed (CHO cells (cell line B); listed as Glycerol) [mM] |
| --- | --- | --- | --- | --- |
| O=CO [formate] | higher than 2 mM | ≥ 2 |  |  |
| OCC(O)CO [glycerol] |  |  | higher than 2 mM | ≥ 2 |
